Reference: publication PMC3693772, “Protein expression, biochemical pharmacology of signal transduction, and relation to intraocular pressure modulation by bradykinin B2 receptors in ciliary muscle” (Molecular Vision, 2013)

Key:
human cloned B2 receptor = molecular target: T1, human cloned B2 receptor (Homo sapiens, UniProt P30411); assay: [^3H]-BK binding to human cloned B2 receptor (CHO-B2 membranes); settings: 0.2 nM [^3H]-BK, CHO-B2 homogenates 2.5 µg protein, 60 min, 23 °C, 50 mM Tris/HCl pH 7.4; mean±SEM, up to 19 experiments; read-out: Ligand binding inhibition constant at human cloned B2 receptors (Ki)
T1 construct: purchased Euroscreen, Gosselies, Belgium; host or cells: CHO cells (recombinant, CHO-B2), used as cell homogenates/membranes
T1 sequence (P30411 1-391): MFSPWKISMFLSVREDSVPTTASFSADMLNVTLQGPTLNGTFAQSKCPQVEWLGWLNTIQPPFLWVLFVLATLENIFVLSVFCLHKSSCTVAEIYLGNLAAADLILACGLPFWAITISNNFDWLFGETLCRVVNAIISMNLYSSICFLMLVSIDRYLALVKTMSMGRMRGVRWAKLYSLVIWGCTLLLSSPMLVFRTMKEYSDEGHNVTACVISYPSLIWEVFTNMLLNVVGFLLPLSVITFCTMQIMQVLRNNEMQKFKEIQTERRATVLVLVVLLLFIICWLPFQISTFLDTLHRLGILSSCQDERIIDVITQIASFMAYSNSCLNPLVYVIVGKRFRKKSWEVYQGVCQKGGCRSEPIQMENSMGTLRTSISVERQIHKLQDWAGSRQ
Procedure: However, in view of the difficulty of obtaining sufficient h-CM cells for these initial studies, we decided to use cell membranes of Chinese hamster ovary cells containing the human cloned B2 receptor (CHO-B2; Euroscreen, Gosselies, Belgium). […] Following this incubation, the samples were filtered rapidly under vacuum through glass fiber filters (PerkinElmer) presoaked with 0.3% polyethyleneimine and rinsed several times with an ice-cold 50 mM Tris-HCl buffer using a 96-sample cell harvester (TomTec; Gaithersburg, MD). The filters were air-dried and the radioactivity counted in a beta-scintillation counter (TopCount, PerkinElmer). Data were analyzed using a sigmoidal-fit, iterative algorithm of a computer program designed to automatically fit the new data (Activity base; IDBS, Surrey, UK).

primary h-CM cells = assay type: cell-based, human; settings: for Effect on background level of total PGs, h-CM cells: alone, up to 100 nM, single experiment; for Effect on total PGs induced by 1 µM BK, h-CM cells: pretreatment, challenge with 1 µM BK
Procedure: (§1) Measurement of prostaglandins in human ciliary muscle and Chinese hamster ovary cells expressing B2 receptors
(§2) This involved stimulating h-CM cells and CHO-B2 cells with various concentrations of test peptides and measuring the release of various PGs in the extracellular medium. The concentration-dependent effects of these peptides on total PGs, and specifically PGE2, PGF2α, and PGD2 release, were studied. Cells were grown as a monolayer in a 24-well plate (precoated with fibronectin) to confluence and subsequently serum-starved overnight before the experiment. On the day of the experiment, just before the drug was added, the wells were aspirated completely, and 990 µl basal medium and 10 µl 100× series of concentrations of the different peptide agonists were added to achieve the desired final concentrations of each compound (e.g., 0.1 nM to 10 µM). […] At the end of the incubation period, the cellular supernatants were collected and stored at −80 °C or used immediately to determine the PG content. Cell supernatants were tested for total PG levels and sub-species of PGs (PGE2, PGF2α, and PGD2) using specific competitive enzyme immunoassays (Cayman Chemical Co., Ann Arbor, MI) as directed in the manufacturer’s recommended protocols using the supplied standards and reagents. The limits of detection for various PGs were as follows: total PGs=29 pg/ml; PGE2=15 pg/ml; PGF2α=9 pg/ml; PGD2=200 pg/ml.

[1] = system: CHO-B2 cells (human cloned B2 receptor); assay type: cell-based, Chinese hamster ovary cells; settings: compound on its own
Procedure: as §1, §2

COX-1 and COX-2 = settings: ref [43]; cited from earlier work

SMILES	Ki (human cloned B2 receptor) [nM]	Effect on background level of total PGs, h-CM cells (primary h-CM cells)	Effect on total PGs induced by 1 µM BK, h-CM cells (primary h-CM cells; three experiments)	PG production/release by compound alone, CHO-B2 cells [1]	COX-1/COX-2 inhibition selectivity (COX-1 and COX-2)	Effect on BK concentration-response of PG release, h-CM cells (primary h-CM cells; 1 µM final, preincubated 5 min, three experiments)
CSCC[C@H](N)C(=O)N[C@@H](CCCCN)C(=O)N[C@@H](CCCNC(=N)N)C(=O)N1CCC[C@H]1C(=O)N1CCC[C@H]1C(=O)NCC(=O)N[C@@H](Cc1ccccc1)C(=O)N[C@@H](CO)C(=O)N1CCC[C@H]1C(=O)N[C@@H](Cc1ccccc1)C(=O)N[C@@H](CCCNC(=N)N)C(=O)O [Met-Lys-BK]	73 ± 24.7	–	–	–	–	–
CC(C(=O)O)c1ccc(-c2ccccc2)c(F)c1 (centres unmarked) [flurbiprofen]	–	inhibited the background level of total PGs	concentration-dependent reduction in total PGs synthesized and secreted, with flurbiprofen much more potent than bromfenac	failed to influence PG production	equally blocks COX-1 and COX-2	–
Nc1c(CC(=O)O)cccc1C(=O)c1ccc(Br)cc1 [bromfenac]	–	inhibited the background level of total PGs	concentration-dependent reduction in total PGs synthesized and secreted	failed to influence PG production	COX-2-selective	completely abolished PG synthesis and release
NCCCC[C@H](N)C(=O)N[C@@H](CCCN=C(N)N)C(=O)N1CCC[C@H]1C(=O)N1CCC[C@H]1C(=O)NCC(=O)N[C@@H](Cc1ccccc1)C(=O)N[C@@H](CO)C(=O)N1CCC[C@H]1C(=O)N[C@@H](Cc1ccccc1)C(=O)N[C@@H](CCCN=C(N)N)C(=O)O [Lys-BK]	1.8 ± 0.7	–	–	–	–	–
